Experiments:
[1] = target: T1, Alpha-1A adrenergic receptor (Homo sapiens, UniProt P35348); format: functional, cell-based
T1 sequence (P35348 whole entry): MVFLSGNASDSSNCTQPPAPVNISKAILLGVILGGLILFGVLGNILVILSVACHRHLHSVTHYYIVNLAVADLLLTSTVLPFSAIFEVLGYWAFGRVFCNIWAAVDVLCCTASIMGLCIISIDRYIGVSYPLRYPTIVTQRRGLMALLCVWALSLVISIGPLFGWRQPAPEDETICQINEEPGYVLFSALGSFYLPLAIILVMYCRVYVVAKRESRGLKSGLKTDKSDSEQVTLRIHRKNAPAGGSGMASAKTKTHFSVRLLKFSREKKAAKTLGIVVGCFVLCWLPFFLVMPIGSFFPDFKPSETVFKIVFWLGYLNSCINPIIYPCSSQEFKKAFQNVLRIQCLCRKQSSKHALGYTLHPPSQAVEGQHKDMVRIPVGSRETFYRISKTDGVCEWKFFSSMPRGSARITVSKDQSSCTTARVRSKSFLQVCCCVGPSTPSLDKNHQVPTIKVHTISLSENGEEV

Prothrombin = Prothrombin (Homo sapiens, UniProt P00734); format: functional
[2] = target: 5-hydroxytryptamine receptor 2B (Homo sapiens, UniProt P41595); format: functional, cell-based
[3] = target: T2, Alpha-2A adrenergic receptor (Homo sapiens, UniProt P08913)
T2 sequence (P08913 whole entry): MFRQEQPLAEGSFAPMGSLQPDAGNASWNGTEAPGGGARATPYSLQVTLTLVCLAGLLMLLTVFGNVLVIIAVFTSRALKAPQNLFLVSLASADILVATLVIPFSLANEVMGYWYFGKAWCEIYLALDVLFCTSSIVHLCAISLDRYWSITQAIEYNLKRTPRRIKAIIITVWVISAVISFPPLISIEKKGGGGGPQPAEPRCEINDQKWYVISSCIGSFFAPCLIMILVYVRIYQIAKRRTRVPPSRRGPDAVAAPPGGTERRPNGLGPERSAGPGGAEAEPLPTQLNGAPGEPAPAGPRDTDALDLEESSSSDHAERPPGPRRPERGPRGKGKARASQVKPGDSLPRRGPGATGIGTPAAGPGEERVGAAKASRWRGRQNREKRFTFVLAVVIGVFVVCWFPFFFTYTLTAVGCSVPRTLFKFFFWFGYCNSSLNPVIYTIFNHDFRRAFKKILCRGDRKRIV

D(3) dopamine receptor = D(3) dopamine receptor (Homo sapiens, UniProt P35462)
[4] = target: Voltage-gated inwardly rectifying potassium channel KCNH2 (Homo sapiens, UniProt Q12809); format: functional; settings: read-out: AC50
Adenosine receptor A3 = target: T3, Adenosine receptor A3 (Homo sapiens, UniProt P0DMS8)
T3 sequence (P0DMS8 whole entry): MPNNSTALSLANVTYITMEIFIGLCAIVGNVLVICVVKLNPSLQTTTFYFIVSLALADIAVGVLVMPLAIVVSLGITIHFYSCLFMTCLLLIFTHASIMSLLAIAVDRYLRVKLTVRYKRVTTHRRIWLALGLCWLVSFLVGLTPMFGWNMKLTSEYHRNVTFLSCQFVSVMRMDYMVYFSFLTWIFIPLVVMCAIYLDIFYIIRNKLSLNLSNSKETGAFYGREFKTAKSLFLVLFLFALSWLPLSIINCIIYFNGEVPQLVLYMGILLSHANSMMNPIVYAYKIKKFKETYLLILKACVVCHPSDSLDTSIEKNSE

Thromboxane A2 receptor = target: T4, Thromboxane A2 receptor (Homo sapiens, UniProt P21731); format: functional, cell-based
T4 sequence (P21731 whole entry): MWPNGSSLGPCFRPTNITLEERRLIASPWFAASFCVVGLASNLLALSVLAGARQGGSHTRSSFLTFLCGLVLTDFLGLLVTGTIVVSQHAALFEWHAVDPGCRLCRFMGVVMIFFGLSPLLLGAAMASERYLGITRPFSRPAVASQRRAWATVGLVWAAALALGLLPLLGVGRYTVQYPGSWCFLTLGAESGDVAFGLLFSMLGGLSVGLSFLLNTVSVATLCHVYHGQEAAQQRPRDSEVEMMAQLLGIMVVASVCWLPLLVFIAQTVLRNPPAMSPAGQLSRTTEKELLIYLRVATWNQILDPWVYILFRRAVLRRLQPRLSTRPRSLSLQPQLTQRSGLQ

Histamine H3 receptor = Histamine H3 receptor (Homo sapiens, UniProt Q9Y5N1)
[5] = target: T5, Prostaglandin G/H synthase 1 (Homo sapiens, UniProt P23219); format: functional
[6] = target: T5, Prostaglandin G/H synthase 1; format: functional; remark: listed apart in the source
Mu-type opioid receptor = Mu-type opioid receptor (Homo sapiens, UniProt P35372)
[7] = target: T6, Muscarinic acetylcholine receptor M2 (Homo sapiens, UniProt P08172)
T6 sequence (P08172 whole entry): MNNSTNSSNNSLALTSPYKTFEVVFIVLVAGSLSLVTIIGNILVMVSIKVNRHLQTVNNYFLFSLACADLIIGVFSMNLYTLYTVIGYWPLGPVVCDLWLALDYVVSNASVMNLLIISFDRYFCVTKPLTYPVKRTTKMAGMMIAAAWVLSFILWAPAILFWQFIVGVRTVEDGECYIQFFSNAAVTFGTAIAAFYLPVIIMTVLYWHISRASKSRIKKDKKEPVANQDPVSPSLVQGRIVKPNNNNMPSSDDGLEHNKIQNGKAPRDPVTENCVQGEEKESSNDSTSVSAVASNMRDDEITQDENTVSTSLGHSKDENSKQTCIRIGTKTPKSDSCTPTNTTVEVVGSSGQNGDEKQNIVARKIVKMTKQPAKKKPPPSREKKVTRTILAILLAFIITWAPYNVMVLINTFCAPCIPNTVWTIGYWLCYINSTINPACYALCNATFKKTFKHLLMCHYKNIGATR

D(1A) dopamine receptor = D(1A) dopamine receptor (Homo sapiens, UniProt P21728)
Also: assay procedure not described here.

5-hydroxytryptamine receptor 2B, sequence (P41595 whole entry): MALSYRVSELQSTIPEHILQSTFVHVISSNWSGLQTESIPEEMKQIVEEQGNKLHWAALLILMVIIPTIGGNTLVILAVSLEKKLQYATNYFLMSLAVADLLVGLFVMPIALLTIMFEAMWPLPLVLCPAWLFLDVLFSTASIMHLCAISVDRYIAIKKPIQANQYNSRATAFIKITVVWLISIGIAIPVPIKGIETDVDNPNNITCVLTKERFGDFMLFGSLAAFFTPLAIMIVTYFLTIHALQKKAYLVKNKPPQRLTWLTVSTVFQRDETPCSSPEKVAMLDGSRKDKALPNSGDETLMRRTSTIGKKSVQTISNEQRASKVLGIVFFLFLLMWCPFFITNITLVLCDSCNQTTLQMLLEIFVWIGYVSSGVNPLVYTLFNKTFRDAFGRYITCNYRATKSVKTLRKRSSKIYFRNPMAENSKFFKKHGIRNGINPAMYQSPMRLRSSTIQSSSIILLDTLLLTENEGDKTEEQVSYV
Histamine H3 receptor, sequence (Q9Y5N1 whole entry): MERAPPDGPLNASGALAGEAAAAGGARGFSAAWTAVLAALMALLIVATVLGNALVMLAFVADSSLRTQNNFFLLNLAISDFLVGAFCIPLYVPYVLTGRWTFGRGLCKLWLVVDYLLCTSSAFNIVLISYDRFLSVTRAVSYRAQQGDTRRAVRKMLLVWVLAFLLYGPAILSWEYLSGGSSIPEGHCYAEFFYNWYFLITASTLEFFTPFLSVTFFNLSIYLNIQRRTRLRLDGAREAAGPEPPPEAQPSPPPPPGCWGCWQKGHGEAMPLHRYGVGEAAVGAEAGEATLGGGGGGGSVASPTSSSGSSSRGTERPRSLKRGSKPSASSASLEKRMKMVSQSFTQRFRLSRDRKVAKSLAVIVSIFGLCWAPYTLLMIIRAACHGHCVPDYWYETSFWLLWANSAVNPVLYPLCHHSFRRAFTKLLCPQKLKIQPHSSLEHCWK
Voltage-gated inwardly rectifying potassium channel KCNH2, sequence (Q12809 whole entry): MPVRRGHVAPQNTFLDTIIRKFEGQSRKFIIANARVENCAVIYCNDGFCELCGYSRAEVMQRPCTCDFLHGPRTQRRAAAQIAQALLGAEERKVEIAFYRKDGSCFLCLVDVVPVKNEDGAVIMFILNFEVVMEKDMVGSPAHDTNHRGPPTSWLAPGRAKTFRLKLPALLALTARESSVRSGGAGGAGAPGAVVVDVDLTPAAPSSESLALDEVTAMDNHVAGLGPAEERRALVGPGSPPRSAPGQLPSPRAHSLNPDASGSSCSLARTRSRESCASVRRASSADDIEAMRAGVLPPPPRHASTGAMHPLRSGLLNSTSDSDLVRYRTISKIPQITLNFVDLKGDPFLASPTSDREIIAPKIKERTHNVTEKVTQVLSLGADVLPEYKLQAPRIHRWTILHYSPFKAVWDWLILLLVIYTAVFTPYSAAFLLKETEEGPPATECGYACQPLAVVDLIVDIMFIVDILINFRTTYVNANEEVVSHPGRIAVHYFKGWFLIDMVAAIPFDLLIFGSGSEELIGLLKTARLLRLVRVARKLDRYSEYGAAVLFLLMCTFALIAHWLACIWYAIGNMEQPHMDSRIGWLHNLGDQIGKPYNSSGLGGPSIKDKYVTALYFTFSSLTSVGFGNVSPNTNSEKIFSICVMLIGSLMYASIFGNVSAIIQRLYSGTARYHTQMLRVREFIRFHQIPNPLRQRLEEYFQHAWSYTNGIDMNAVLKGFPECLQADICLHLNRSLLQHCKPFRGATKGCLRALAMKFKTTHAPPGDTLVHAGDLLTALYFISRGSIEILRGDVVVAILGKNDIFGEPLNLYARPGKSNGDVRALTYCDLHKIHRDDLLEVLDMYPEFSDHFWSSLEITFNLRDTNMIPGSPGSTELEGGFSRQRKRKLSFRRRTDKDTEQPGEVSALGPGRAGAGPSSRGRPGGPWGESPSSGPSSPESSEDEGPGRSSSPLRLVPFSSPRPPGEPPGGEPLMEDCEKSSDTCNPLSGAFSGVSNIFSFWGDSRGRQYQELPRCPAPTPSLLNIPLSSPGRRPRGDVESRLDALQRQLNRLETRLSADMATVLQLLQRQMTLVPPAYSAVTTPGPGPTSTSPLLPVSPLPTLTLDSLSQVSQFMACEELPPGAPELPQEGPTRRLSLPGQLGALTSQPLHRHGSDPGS
D(3) dopamine receptor, sequence (P35462 whole entry): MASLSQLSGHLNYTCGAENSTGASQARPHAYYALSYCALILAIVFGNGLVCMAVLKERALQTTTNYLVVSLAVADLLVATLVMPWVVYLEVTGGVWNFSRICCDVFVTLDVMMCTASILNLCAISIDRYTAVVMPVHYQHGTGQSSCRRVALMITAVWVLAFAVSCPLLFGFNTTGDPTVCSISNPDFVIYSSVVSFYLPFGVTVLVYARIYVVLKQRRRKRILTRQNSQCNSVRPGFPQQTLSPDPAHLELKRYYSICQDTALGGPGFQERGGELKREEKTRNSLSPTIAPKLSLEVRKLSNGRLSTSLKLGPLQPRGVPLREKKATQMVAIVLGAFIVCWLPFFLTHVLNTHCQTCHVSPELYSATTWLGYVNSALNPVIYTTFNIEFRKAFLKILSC
D(1A) dopamine receptor, sequence (P21728 whole entry): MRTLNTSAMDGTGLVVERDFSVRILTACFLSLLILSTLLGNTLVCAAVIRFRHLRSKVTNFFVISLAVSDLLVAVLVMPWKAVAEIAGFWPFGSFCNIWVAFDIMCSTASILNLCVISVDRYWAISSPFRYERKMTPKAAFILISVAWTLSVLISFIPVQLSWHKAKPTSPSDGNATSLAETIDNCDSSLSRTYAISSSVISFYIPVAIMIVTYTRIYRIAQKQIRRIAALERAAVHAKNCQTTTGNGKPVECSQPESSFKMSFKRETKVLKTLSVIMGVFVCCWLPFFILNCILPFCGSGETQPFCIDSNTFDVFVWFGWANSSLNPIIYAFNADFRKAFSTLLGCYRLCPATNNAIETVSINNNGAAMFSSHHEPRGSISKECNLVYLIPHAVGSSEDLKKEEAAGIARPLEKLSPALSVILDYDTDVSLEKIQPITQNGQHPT
T5 sequence (P23219 whole entry): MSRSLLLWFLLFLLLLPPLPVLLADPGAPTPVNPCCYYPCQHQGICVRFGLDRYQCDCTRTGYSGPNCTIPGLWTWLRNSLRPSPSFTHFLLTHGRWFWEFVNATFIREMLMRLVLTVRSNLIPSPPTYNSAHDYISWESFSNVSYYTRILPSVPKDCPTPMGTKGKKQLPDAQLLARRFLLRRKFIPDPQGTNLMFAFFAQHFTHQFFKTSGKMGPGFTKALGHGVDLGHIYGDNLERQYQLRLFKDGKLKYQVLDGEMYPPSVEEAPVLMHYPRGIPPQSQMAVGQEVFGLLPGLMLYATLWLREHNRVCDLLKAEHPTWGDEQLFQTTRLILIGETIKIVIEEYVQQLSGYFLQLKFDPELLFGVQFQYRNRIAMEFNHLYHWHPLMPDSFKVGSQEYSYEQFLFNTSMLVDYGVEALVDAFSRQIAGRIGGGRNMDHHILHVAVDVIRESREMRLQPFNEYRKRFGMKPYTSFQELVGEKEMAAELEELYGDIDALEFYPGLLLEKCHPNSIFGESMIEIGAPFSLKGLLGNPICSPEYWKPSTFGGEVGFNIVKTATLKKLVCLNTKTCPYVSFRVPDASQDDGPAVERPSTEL
Mu-type opioid receptor, sequence (P35372 whole entry): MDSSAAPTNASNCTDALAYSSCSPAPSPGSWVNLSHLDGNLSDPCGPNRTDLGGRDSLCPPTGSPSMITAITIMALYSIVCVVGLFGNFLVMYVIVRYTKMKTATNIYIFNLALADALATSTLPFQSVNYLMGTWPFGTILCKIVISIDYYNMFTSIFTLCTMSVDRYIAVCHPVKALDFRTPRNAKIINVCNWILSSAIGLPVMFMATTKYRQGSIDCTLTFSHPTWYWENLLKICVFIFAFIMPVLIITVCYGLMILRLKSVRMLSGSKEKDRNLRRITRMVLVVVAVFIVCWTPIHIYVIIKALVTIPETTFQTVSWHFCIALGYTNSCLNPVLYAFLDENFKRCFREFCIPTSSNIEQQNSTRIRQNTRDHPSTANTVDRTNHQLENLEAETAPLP

Structure (SMILES)	AC50 [1]	AC50 (Prothrombin)	AC50 [2]	AC50 [3]	AC50 (D(3) dopamine receptor)	AC50 [4]	AC50 (Adenosine receptor A3)	AC50 (Thromboxane A2 receptor)	AC50 (Histamine H3 receptor)	AC50 [5]	AC50 [6]	AC50 (Mu-type opioid receptor)	AC50 [7]	AC50 (D(1A) dopamine receptor)
Cc1c(O)cccc1C(=O)N[C@@H](CSc1ccccc1)[C@H](O)CN1C[C@H]2CCCC[C@H]2C[C@H]1C(=O)NC(C)(C)C	> 30 µM	> 30 µM	> 30 µM	> 30 µM	> 30 µM	> 30 µM	2.84 µM	13.2 µM	> 30 µM	> 30 µM	> 30 µM	15.3 µM	> 30 µM	
NS(=O)(=O)c1cc(-c2nnn[nH]2)c(NCc2cccs2)cc1Cl [AZOSEMIDE]						> 30 µM								
C[N+](C)(C)CC(=O)O [BETAINE]						> 30 µM								
CN(Cc1cc(Br)cc(Br)c1N)C1CCCCC1 [BROMHEXINE]	> 30 µM	> 30 µM	> 30 µM	> 30 µM	> 30 µM	20 µM	27.9 µM	> 30 µM	> 30 µM	> 30 µM	> 30 µM	> 30 µM	> 30 µM	> 30 µM
CCCC(=O)N1CCCN(c2nc(N)c3cc(OC)c(OC)cc3n2)CC1 [BUNAZOSIN]						4.5 µM								
C[N+](C)(C)CCOC(N)=O [CARBAMOYLCHOLINE]						> 30 µM								
N[C@@H](CSCC(=O)O)C(=O)O [CARBOCYSTEINE]						> 30 µM								
CC(C)(N)Cc1ccc(Cl)cc1 [CHLORPHENTERMINE]						> 30 µM								
CN1CCN(C(c2ccccc2)c2ccccc2)CC1 [CYCLIZINE]	> 30 µM	> 30 µM	> 30 µM	3.47 µM	2.21 µM	20 µM	9.64 µM	> 30 µM	> 30 µM	> 30 µM	> 30 µM	24.9 µM	0.334 µM	14.4 µM
CN(C)[C@@H]1C(O)=C(C(N)=O)C(=O)[C@@]2(O)C(O)=C3C(=O)c4c(O)ccc(Cl)c4[C@@H](O)[C@H]3C[C@@H]12 [DEMECLOCYCLINE]						> 30 µM								
C[C@@H]1C[C@H]2[C@@H]3CCC4=CC(=O)C=C[C@]4(C)[C@@]3(F)[C@@H](O)C[C@]2(C)[C@H]1C(=O)CO [DESOXIMETASONE]	> 30 µM	> 30 µM	> 30 µM	> 30 µM	> 30 µM	> 30 µM	> 30 µM	> 30 µM	> 30 µM	> 30 µM	> 30 µM	> 30 µM	> 30 µM	> 30 µM
NS(=O)(=O)c1cc(Cl)c(Cl)c(S(N)(=O)=O)c1 [DICHLORPHENAMIDE]						> 30 µM								
CC1=NN(c2ccccc2)C(=O)C1 [EDARAVONE]	> 30 µM	> 30 µM	> 30 µM	> 30 µM	10.9 µM	> 30 µM	> 30 µM	> 30 µM	> 30 µM	> 30 µM	12.5 µM	> 30 µM	26.5 µM	> 30 µM

— ChEMBL document CHEMBL5291721, “A preclinical secondary pharmacology resource illuminates target-adverse drug reaction associations of marketed drugs” (Nat Commun, 2023)
